Assay results from ChEMBL document CHEMBL1201862, “PubChem BioAssay data set” (2004).
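Compound exposure: 48 hours, 5 concentrations, 96-well plates. GI50 is the concentration that inhibits growth by half.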 Calls of active or inactive are those of the source. Rule as the data show it: active = GI50 up to about 1.1 µM and inactive = higher.

How the values were obtained:
Experiment in all cases: NCI anticancer screen, dose series, 48 h
ACHN = test system: ACHN
COLO 205 = test system: COLO 205
EKVX = test system: EKVX
HOP-62 = test system: HOP-62
HOP-92 = test system: HOP-92
K562 = test system: K562
KM12 = test system: KM12
M14 = test system: M14
MOLT-4 = test system: MOLT-4
NCI-H23 = test system: NCI-H23
NCI/ADR-RES = test system: NCI/ADR-RES
OVCAR-5 = test system: OVCAR-5
RPMI-8226 = test system: RPMI-8226
SF-295 = test system: SF-295
SF-539 = test system: SF-539
SK-MEL-5 = test system: SK-MEL-5
SN12C = test system: SN12C
SR = test system: SR
U-251 = test system: U-251
UACC-62 = test system: UACC-62

Measured: GI50

COC(=O)[C@@H](NC1(c2ccccc2)c2ccccc2-c2ccccc21)[C@@H](C(=O)OC)N(NC(=O)OCc1ccccc1)C(=O)OCc1ccccc1.COC(=O)[C@@H](NC1(c2ccccc2)c2ccccc2-c2ccccc21)[C@H](C(=O)OC)N(NC(=O)OCc1ccccc1)C(=O)OCc1ccccc1
inactive: ACHN > 100 µM | COLO 205 > 100 µM | EKVX 21.4 µM | HOP-62 > 100 µM | HOP-92 > 100 µM | K562 > 100 µM | KM12 > 100 µM | M14 > 100 µM | MOLT-4 > 100 µM | NCI-H23 > 100 µM | NCI/ADR-RES > 100 µM | OVCAR-5 > 100 µM | RPMI-8226 > 100 µM | SF-295 > 100 µM | SF-539 > 100 µM | SK-MEL-5 > 100 µM | SN12C > 100 µM | SR > 100 µM | U-251 33.8 µM | UACC-62 > 100 µM
